The compound `CC(C)CCC(C)Oc1c(-c2ccc(S(C)(=O)=O)cc2)cnn(-c2ccc(F)cc2)c1=O` (stereo unspecified) had a melting point of 102 to 103 °C.
For the compound `Nc1nonc1-c1nc2ccccc2n1CC(=O)c1ccc(Cl)c([N+](=O)[O-])c1`, the melting point is 198 to 200 °C.
For the compound `COc1ccccc1C(=O)CN1C(=O)C(NC(=O)Nc2cccc(-c3nnn[nH]3)c2)N=C(c2ccccc2F)c2cccc(C)c21` (stereo unspecified), the melting point was 194 to 195 °C.
The result for `CCC1c2ccc(C=O)n2-c2ccc(F)cc2N1S(=O)(=O)c1ccc(O)c(C)c1` (stereo unspecified) reads 192 to 194 °C.
`COC1=c2ccccc2=c2ccc(Cl)cc2=C(c2ccccc2F)N1` came in with a melting point of 136 to 138 °C.
With `Cc1cccc(C(=O)c2ncccc2C(=O)O)c1` the figure was 184 to 189 °C; with `N#Cc1nc(N)c(-c2ccccc2)nc1C#N`, 167 to 168 °C; with `O=C1CN(C(=O)c2ccccc2)c2ccccc2N1`, 208 °C.
With `CC1(C)Nc2ccccc2-c2c([N+](=O)[O-])cnn21` the figure was 193 to 195 °C; with `CNc1ccc(C(=O)OC)c(S(=O)(=O)NC(C)(C)C)c1`, 120 to 124 °C.
`O=C1C2=C(c3ccccc3)N(c3ccccc3)C(=O)C2=C(c2ccccc2)N1c1ccccc1` gave a melting point above 300 °C.
`O=c1[nH]c(=O)n(C2CC2)c2c(OC(F)F)c(F)ccc12` showed a melting point of 215 to 221 °C.
With `COC(=O)c1cc(OC)c2ccccc2c1OC` the figure was 48 to 50 °C; with `COc1cc(Br)cc(C23CC4CC(CC(C4)C2)C3)c1OCc1ccccc1`, 89 to 91 °C; with `Cc1cc(C)nc(NC(=O)NS(=O)(=O)c2ccccc2C(F)F)n1`, 190 to 195 °C.
Regarding `O=C(NCc1ccc(Cl)cc1)c1cn2c3c(cc(CN4CCOCC4)cc3c1=O)OC(CN1CCCC1)C2` (stereo unspecified), the melting point lay in the range of 210 to 212 °C.
The result for `O=C(CC1CCN(Cc2ccccc2)CC1)Nc1cncnc1NCc1ccc(F)cc1` reads 157 °C; that for `COC1(c2cc(F)cc(Sc3ccc(C(=O)C(F)(F)F)cc3)c2)CCOCC1`, 63 °C; that for `CC(C)c1ccc(-c2nn(C)c(=O)c3ccccc23)cc1`, 107 to 108 °C.
As for `C=CC1CCC2C3CC(=O)C4=CC(=O)CCC4(C)C3CCC12C` (stereo unspecified), the melting point was in the range of 114 to 120 °C.
The result for `CCCCCCc1ccc(N2C=CC(=C=C3C(C#N)C(=C(C#N)C#N)OC3(C)C)C=C2)cc1` (stereo unspecified) reads 193 °C.
With `O=[N+]([O-])c1ccc2c(c1OS(=O)(=O)C(F)(F)F)CCC2` the figure was 44 to 46 °C; with `COCOc1cc(Cl)ccc1-c1cc(-c2cccc(C(=O)NCCCn3ccnc3)c2)c(C#N)c(NC(=O)c2ccco2)n1`, 121 to 122 °C; with `CCOC(=O)C1=C(COCCN2CCN(c3nc(N)n(C)n3)CC2)NC(C)=C(C(=O)OC)C1c1ccccc1Cl` (stereo unspecified), 92 to 96 °C.
With `CCOC(=O)C1=C(C)NC(O)(C(Cl)(Cl)Cl)C(C(=O)OCC)C1c1cccc([N+](=O)[O-])c1` (stereo unspecified) the figure was 125 to 126 °C; with `CCCCCS(=O)(=O)NCC(C)Cc1ccc(OCCOC)cc1Oc1ncc(C(F)(F)F)cc1Cl` (stereo unspecified), 80 to 82 °C.
On to `CCOC(=O)c1cnc(-c2cc3cccc(N)c3n2COC)s1`, for which the melting point fell in the range of 188 to 190 °C.
The compound `CCn1ncc2c(Cl)c3cccc(OC)c3nc21` displayed a melting point of 168 to 170 °C.
For `Cc1cc(Cn2nc(C(F)(F)F)cc2C(F)(F)F)ccc1NC(=O)c1cccc(Cl)c1C(=O)NC(C)(C)C(=O)O`, the melting point fell in the range of 179 to 184 °C.
In the case of `CCCc1cc(OCc2ccc(C(=O)O)cc2)c2ccccc2n1`, the melting point was in the range of 225 to 227 °C.
With `CC(C)(C)OC(=O)N1CCN(C(=O)C2CCCCN2C(=O)OCc2ccccc2)CC1` (stereo unspecified) the figure was 102 °C.
In the case of `Cc1cc2c(-c3cccc(C=O)c3)c(CC(=O)Nc3ccc(Cl)cc3C(F)(F)F)c(=O)oc2cc1Cl`, the melting point fell in the range of 232 to 233 °C.
As to `CC(=O)C=CS(=O)(=O)N1C=C(Cl)C=NC1`, the melting point amounted to 95 °C.
With `CC#CCOc1cc(Nc2ccccc2)ncn1` the figure was 159 °C.
In the case of `COc1cc(Nc2nccc(C(=O)Nc3ccccc3)n2)cc(OC)c1OC`, the melting point was in the range of 158 to 159 °C.
The result for `CCOC(=O)c1c(O)c(Br)c(Br)n1-c1ccccc1` reads 144 to 145 °C; that for `CNC(=O)c1ccc(-c2ccc(NC(=O)NCc3cccnc3)cc2)nc1Nc1ccccc1`, 234 to 236 °C.
`CCNC(=O)c1cccc2[nH][nH]c(=O)c12` registered a melting point of 209 to 210 °C.
Turning to `CCOc1cc2c(Nc3cc(OC)c(Cl)cc3Cl)c(C#N)cnc2cc1OCCCN1CCN(CC)CC1`, the melting point lay in the range of 127 to 130 °C.
`CC(C)OC(=O)c1cc(F)c(Cl)cc1Cl` came in with a melting point of 35 °C.
As for `N#CC(C(=O)Nc1ccccc1)C(=O)c1nn(-c2ccccc2)c2c1COc1c(CN3CCOCC3)cc(F)cc1-2` (stereo unspecified), the melting point lay within 249 to 253 °C.
The result for `O=C(O)c1ccc(-c2ccc(OCc3ccccc3)cc2)cc1` reads above 300 °C; that for `C[C@H](N)C(=O)N(CC(=O)O)C1Cc2ccccc2C1`, 180 to 182 °C; that for `COC(=O)C1=C(C)NC(C)=C(C(=O)OCCCCCCOc2cc(-c3ccccc3)[nH]n2)C1c1cccc(Cl)c1Cl` (stereo unspecified), 68 to 71 °C.
The result for `Cc1cc(C=O)cc(Oc2nc(OCc3ccccc3)nc(OCc3ccccc3)c2C(C)C)c1` reads 171 to 172 °C; that for `Oc1ccc(Oc2ccccc2F)cc1`, 81.5 to 82 °C.
The result for `N#Cc1nccn1Cc1ccccc1` reads 51 to 52 °C; that for `CC(=O)C12CC(C(C)=O)(C1)C2`, 67 to 69 °C.
Compound `CS(=O)CCNC(=O)c1cccc(-c2cccc(Oc3cc(Cl)cc(Cl)c3)n2)c1` (stereo unspecified) gave a melting point of 158 to 159 °C.
The result for `CN1CC[C@@]2(c3cccc(O)c3)C[C@@H](N=[N+]=[N-])CC[C@H]2C1` (racemic) reads 139 to 140 °C; that for `Nc1ncnc2c1nc(Sc1cc3c(cc1Br)OCO3)n2CCCCCC(=O)NO`, 160 to 169 °C; that for `Nc1c(F)cc(F)c(-n2cc(C(=O)O)c(=O)c3cc(F)c(N4CC[C@H](N)C4)nc32)c1F`, 273 to 277 °C.
With `CC1CC(=O)c2cc(OCc3ccccc3)cnc2C1` (stereo unspecified), the melting point is 80.5 to 81.5 °C.
The result for `Cc1ccc(-c2ccc3c(c2)C(=O)CCC3)cc1` reads 86 to 87 °C.
`O=C(O)c1ccc2c(c1)S(=O)(=O)c1ccccc1C=C2` came in with a melting point of 268 to 270 °C.
For `C[C@@H]1CSC(=O)[C@@H]2CCCN2C1=O`, the melting point lay within 98 to 101 °C.
The compound `CCOC(Cc1ccc(OCCN(C)c2nc3ccccc3o2)cc1)C(=O)O` (stereo unspecified) came in with a melting point of 109 to 110 °C.
With `CN(C(=O)C(Cl)(Cl)Cl)c1nc(Cl)c([N+](=O)[O-])s1` the figure was 146 to 149 °C; with `CC(CCN(C)c1ccc(Cl)cc1)NCC(O)c1ccc(O)c(C(N)=O)c1` (stereo unspecified), 127 to 129 °C; with `COC(=O)c1ccc(C2=NOC(P(=O)(OC)OC)C2)cc1` (stereo unspecified), 93 °C.
Regarding `NS(=O)(=O)c1ccccc1-c1cnoc1`, the melting point was in the range of 165 to 167 °C.
